Laboratory results taken from patent publication US4879114A, “Lipids from omentum and methods for cosmetic use” (Angio-Medical Corporation, priority 1985, dated 1989).

System: skin (back) of subjects
Conditions: in vivo

Question: Which “challenge patch reading: dermal contact irritation or sensitization” value does the source give for petrolatum here?
Answer: Its value is “negative at each reading without any evidence of dermal contact irritation or sensitization”.

Question: What about the “induction phase patch reading” value of the same substance?
Answer: The value was “negative at each reading”.
